Measurements reported in PMC9981719, “A novel designed membrane-active peptide for the control of foodborne Salmonella enterica serovar Typhimurium” (Scientific Reports, 2023).
“Also recorded” adds a separate entry of the source. Where no end group is shown, it is not given here.

Experiments:
[1] = test system: L929 mouse fibroblast cells; test: In vitro cytotoxicity, MTT assay; type: cell-based; conditions: 0.98–250 µg/ml, 24 h
Experimental: The cytotoxicity of A11 was evaluated by the 3-(4,5 dimethylthiazol-2-yl)-2,5-diphenyltetrazolium bromide (MTT) assay. L929 mouse fibroblast cells were cultured in Dulbecco's Modified Eagle Medium (DMEM) supplemented with 1% (v/v) of 100 IU/ml penicillin/streptomycin and 10% (v/v) fetal bovine serum (FBS). The cells were maintained in an air atmosphere containing the 5% CO2 under high humidity at 37 °C. L929 cell lines were seeded into a sterile 96-well plate (1 × 10^4 cells/well) then incubated overnight and treated with different concentrations of A11 (0.98–250 µg/ml) for 24 h. Media were removed, and cultured cells were incubated with 100 µl of MTT solution (4 mg/ml) for 4 h at 37 °C. After removal of MTT solution, the formed formazan was dissolved in 100 µl DMSO. Absorbance was measured by microplate reader at 570 nm; untreated cells served as negative control and melittin-treated cells as a positive control. Cell viability was determined following this equation: Cell viability%=ODTreated/ODControl×100

4,5,12:i:- H1-100 [2] = type: cell-based, Salmonella enterica 4,5,12:i:-; conditions: strain H1-100
From the text: (§1) All tests were done in triplicate.

4,5,12:i:- H2-067 = type: cell-based, Salmonella enterica 4,5,12:i:-; conditions: strain H2-067
From the text: as §1

4,5,12:i:- H2-047 = type: cell-based, Salmonella enterica 4,5,12:i:-; conditions: strain H2-047
From the text: as §1

4,5,12:i:- H1-024 = type: cell-based, Salmonella enterica 4,5,12:i:-; conditions: strain H1-024
From the text: as §1

4,5,12:i:- H2-010 = type: cell-based, Salmonella enterica 4,5,12:i:-; conditions: strain H2-010
From the text: as §1

4,5,12:i:- H2-042 [3] = type: cell-based, Salmonella enterica 4,5,12:i:-; conditions: strain H2-042
From the text: as §1

4,5,12:i:- H2-039 [4] = type: cell-based, Salmonella enterica 4,5,12:i:-; conditions: strain H2-039
From the text: as §1

4,5,12:i:- H2-089 [5] = type: cell-based, Salmonella enterica 4,5,12:i:-; conditions: strain H2-089
From the text: as §1

4,5,12:i:- H2-071 = type: cell-based, Salmonella enterica 4,5,12:i:-; conditions: strain H2-071
From the text: as §1

4,5,12:i:- H2-049 = type: cell-based, Salmonella enterica 4,5,12:i:-; conditions: strain H2-049
From the text: as §1

4,5,12:i:- H1-100 [6] = conditions: checkerboard, TSB, 37 °C, 24 h
Experimental: (§2) Effects of the combination of A11 with nisin against S. Typhimurium ATCC 13311 and 10 drug-resistant S. Typhimurium and S. enterica isolates were determined by the checkerboard titration method. Briefly, 10 drug-resistant S. Typhimurium were grown to a concentration of 1 × 10^7 CFU/ml in fresh TSB. Aliquots (25 µl) of nisin (final concentrations of 0.5–16 mg/ml) and A11 (final concentrations of 0.98–250 µg/ml) were added into 96-well plates containing 50 µl of bacterial suspension and cultured at 37 °C. […] ICA is the concentration required to produce the same effect as compound A when used alone, ICB is the concentration required to produce the same effect as compound B when used alone. The CI results were interpreted as follows: a CI of less than 1 indicates synergistic effect, a CI equal to 1 indicates additive effect, and a CI of more than 1 indicates antagonistic effect.

S. Typhimurium H1-006 = conditions: checkerboard, TSB, 37 °C, 24 h
Experimental: as §2

S. Typhimurium H1-015 = conditions: checkerboard, TSB, 37 °C, 24 h
Experimental: as §2

S. Typhimurium ATCC13311 = conditions: checkerboard, TSB, 37 °C, 24 h
Experimental: as §2

S. Typhimurium H1-062 = conditions: checkerboard, TSB, 37 °C, 24 h
Experimental: as §2

S. Typhimurium H1-001 = conditions: checkerboard, TSB, 37 °C, 24 h
Experimental: as §2

4,5,12:i:- H2-042 [7] = conditions: checkerboard, TSB, 37 °C, 24 h
Experimental: as §2

4,5,12:i:- H2-039 [8] = conditions: checkerboard, TSB, 37 °C, 24 h
Experimental: as §2

4,5,12:i:- H2-089 [9] = conditions: checkerboard, TSB, 37 °C, 24 h
Experimental: as §2

S. Typhimurium H1-041 = conditions: checkerboard, TSB, 37 °C, 24 h
Experimental: as §2

S. Typhimurium H1-011 = conditions: checkerboard, TSB, 37 °C, 24 h
Experimental: as §2

WVKKVARKVVKIGRKVAR-NH2 [A11]
cytotoxicity toward L929 cells (cell viability, MTT) [1]: no cytotoxic activity; also recorded: no cytotoxic effect | MBC (4,5,12:i:- H1-100 [2]): 62.5 (62.5) µg/ml | MIC (4,5,12:i:- H1-100 [2]): 62.5 (62.5) µg/ml | MBC (4,5,12:i:- H2-067): 62.5 (62.5) µg/ml | MIC (4,5,12:i:- H2-067): 62.5 (62.5) µg/ml | MBC (4,5,12:i:- H2-047): 125 µg/mL | MIC (4,5,12:i:- H2-047): 62.5 µg/mL | MBC (4,5,12:i:- H1-024): 62.5 (62.5) µg/ml | MIC (4,5,12:i:- H1-024): 62.5 (62.5) µg/ml | MBC (4,5,12:i:- H2-010): 62.5 (62.5) µg/ml | MIC (4,5,12:i:- H2-010): 62.5 (62.5) µg/ml | MBC (4,5,12:i:- H2-042 [3]): 125 µg/mL | MIC (4,5,12:i:- H2-042 [3]): 62.5 µg/mL | MBC (4,5,12:i:- H2-039 [4]): 125 µg/mL | MIC (4,5,12:i:- H2-039 [4]): 62.5 µg/mL | MBC (4,5,12:i:- H2-089 [5]): 125 µg/mL | MIC (4,5,12:i:- H2-089 [5]): 62.5 µg/mL | MBC (4,5,12:i:- H2-071): 125 (125) µg/ml | MIC (4,5,12:i:- H2-071): 125 (125) µg/ml | MBC (4,5,12:i:- H2-049): 125 µg/mL | MIC (4,5,12:i:- H2-049): 62.5 µg/mL | MIC (alone) (4,5,12:i:- H1-100 [6]): 62.5 µg/mL | MIC (alone) (S. Typhimurium H1-006): 125 µg/mL | MIC (alone) (S. Typhimurium H1-015): 62.5 µg/mL | MIC (alone) (S. Typhimurium ATCC13311): 15.63 µg/mL | MIC (alone) (S. Typhimurium H1-062): 125 µg/mL | MIC (alone) (S. Typhimurium H1-001): 62.5 µg/mL | MIC (alone) (4,5,12:i:- H2-042 [7]): 62.5 µg/mL | MIC (alone) (4,5,12:i:- H2-039 [8]): 62.5 µg/mL | MIC (alone) (4,5,12:i:- H2-089 [9]): 62.5 µg/mL | MIC (alone) (S. Typhimurium H1-041): 125 µg/mL | MIC (alone) (S. Typhimurium H1-011): 62.5 µg/mL
